Earlier results, collected in paper PMC11110755, “Structure-based virtual screening of unbiased and RNA-focused libraries to identify new ligands for the HCV IRES model system” (RSC Medicinal Chemistry, 2024).
pEC50: −log10 of the molar value.

System: HCV IRES subdomain IIa
Design: method as in PMID 20564282
Details: previously reported, Fig. 1; read-out: EC50 (2-AP assay); cited from earlier work

CC(=O)c1ccc(C(=O)N[C@@H](CCCCN)C(=O)N2C[C@H](N)C[C@H](N)C2)cc1 [Compound 3]
pEC50: 3.57
